{"source": "patent US20060111305A1", "about": "“Metabolites of certain [1,4]diazepino[6,7,1-ij]quinoline derivatives and methods of preparation and use thereof” (Wyeth, priority 2004, published 2006)", "key": {"[1]": {"assay": "Rat brain radioactivity content and metabolite profiles after single oral 5 mg/kg [14C]DCDQ", "assay_type": "in vivo, Sprague-Dawley rats", "protocol": "(§1) At sacrifice, blood samples were collected by cardiac puncture into tubes containing EDTA as the anticoagulant and placing them on ice. Aliquots of 50 μL were removed for combustion and determination of radioactivity content. Plasma was immediately obtained from the remaining blood by centrifugation at 4° C. Brains were excised after perfusion with 50 mL of chilled sterile saline. Urine samples were collected on dry ice at intervals of 0-8 and 8-24 hour post-dosing. Feces were collected at intervals of 0-8 and 8-24 hr post-dosing at room temperature and were homogenized as described previously. The biological specimens and aliquots of the dosing solution at pre- and post-dose were stored at approximately −70° C. until analyzed.\n(§2) Brain and fecal samples were weighed and homogenized in water at volume-to-weight ratios of about 1:1 and 5:1, respectively. Blood aliquots (50 μL), brain homogenates (0.1 gram) and fecal homogenates (0.2 gram) were placed on Combusto-cones with Combusto-pads and combusted. A model 307 Tri-Carb Sample Oxidizer, equipped with an Oximate-80 Robotic Automatic Sampler (Perkin Elmer), was used for combustion. The liberated ^14CO2 was trapped with Carbo-Sorb E carbon dioxide absorber, mixed with PermaFluor® E+ liquid scintillation cocktail, and counted in a Tri-Carb Model 3100 TR/LL liquid scintillation counter (Perkin Elmer). The oxidation efficiency of the oxidizer was 98.2%.\nBrain homogenates were analyzed for metabolite profiles. Aliquots of 1 gram of brain homogenates were mixed with an equal volume of methanol, placed on ice for about 10 minutes and centrifuged. The supernatant was transferred to a clean tube. The residue was extracted three times with 1 mL methanol. The supernatants of each sample were combined, evaporated to about 0.5 mL, and centrifuged. Extraction efficiency was determined by analyzing aliquots of 10 μL of the supernatant for radioactivity. An aliquot (100-200 μL) of the supernatant was analyzed by HPLC with radioactivity flow detection for profiling. Samples were also analyzed by LC/MS to characterize the radioactive peaks.\n(§3) A Waters model 2690 HPLC system (Waters Corp., Milford, Mass.) with a built-in autosampler was used for analysis. Separations were accomplished on a Phenomenex Luna C18(2) column (150×2.0 mm, 5 μm) (Phenomenex, Torrance, Calif.). The sample chamber of the autosampler was maintained at 4° C., while the column was at ambient temperature of about 20° C. A variable wavelength UV detector set to monitor 250 nm and a Flo-One β Model A525 radioactivity detector described above were used for data acquisition. The HPLC mobile phase consisted of 10 mM ammonium acetate, pH 4.5 (A) and methanol (B), and was delivered at 0.2 mL/min. Chromatographic condition A was used for dose analysis, while condition B was used for analysis of urine and plasma, brain and fecal extracts."}, "[2]": {"assay": "Rat fecal excretion and metabolite profiles after single oral 5 mg/kg [14C]DCDQ", "assay_type": "in vivo, Sprague-Dawley rats", "conditions": "male rats", "protocol": "as §1, §2\nFecal homogenates were analyzed for metabolite profiles. Aliquots of 1 gram of fecal homogenates were mixed with 2 mL methanol, placed on ice for about 10 minutes and centrifuged. The supernatant was transferred to a clean tube. The residue was extracted three times with 2 mL of a water:methanol (3:7) mixture. The supernatants of each sample were combined, evaporated to about 1 mL, and centrifuged. Extraction efficiency was determined by analyzing aliquots of 10 μL of the supernatant for radioactivity. An aliquot (50-200 μL) of the supernatant was analyzed by HPLC with radioactivity flow detection for profiling. Samples were also analyzed by LC/MS to characterize the radioactive peaks.\nas §3, with “Chromatographic condition A was used for dose analysis, while condition B was used for analysis of urine and plasma, brain and fecal extracts.” left out"}}, "note": "Where two headings read alike, the source gives them in different places."}
{"smiles": "c1cc2c3c(c1)[C@H]1CCC[C@H]1CN3CCNC2", "note": "[DCDQ, (9aR,12aS)-4,5,6,7,9,9a,10,11,12,12a-decahydro-cyclopenta[c][1,4]diazepine[6,7,1-ij]quinoline, reference compound]", "values": [{"measurement": "Kp at 2 h", "setting": "[1]; Sprague-Dawley, rat, brain and plasma, oral, 5 mg/kg, male rats, 2 hr, read-out: Brain/Plasma Ratio, DCDQ", "value": "56.4 ± 11.5"}, {"measurement": "Kp at 4 h", "setting": "[1]; Sprague-Dawley, rat, brain and plasma, oral, 5 mg/kg, male rats, 4 hr, read-out: Brain/Plasma Ratio, DCDQ", "value": "50.5 ± 8.88"}, {"measurement": "concentration at 2 h", "setting": "[1]; Sprague-Dawley, rat, brain, oral, 5 mg/kg, female rats, 2 hr, mean ± S.D., N = 3, read-out: Brain concentration, DCDQ (estimated)", "value": "6080 ± 2170", "unit": "ng/g"}, {"measurement": "concentration at 8 h", "setting": "[1]; Sprague-Dawley, rat, brain, oral, 5 mg/kg, female rats, 8 hr, mean ± S.D., N = 3, read-out: Brain concentration, DCDQ (estimated)", "value": "2680 ± 660", "unit": "ng/g"}, {"measurement": "concentration at 2 h", "setting": "[1]; Sprague-Dawley, rat, brain, oral, 5 mg/kg, male rats, 2 hr, mean ± S.D., N = 3, read-out: Brain concentration, DCDQ (estimated)", "value": "4630 ± 1180", "unit": "ng/g"}, {"measurement": "concentration at 4 h", "setting": "[1]; Sprague-Dawley, rat, brain, oral, 5 mg/kg, male rats, 4 hr, mean ± S.D., N = 3, read-out: Brain concentration, DCDQ (estimated)", "value": "4470 ± 420", "unit": "ng/g"}, {"measurement": "concentration at 8 h", "setting": "[1]; Sprague-Dawley, rat, brain, oral, 5 mg/kg, male rats, 8 hr, mean ± S.D., N = 3, read-out: Brain concentration, DCDQ (estimated)", "value": "2930 ± 930", "unit": "ng/g"}, {"measurement": "Kp at 2 h", "setting": "[1]; Sprague-Dawley, rat, brain/plasma, oral, 5 mg/kg, female rats, 2 hr, read-out: Brain/Plasma Ratio, DCDQ", "value": "49.9 ± 14.3"}, {"measurement": "Kp at 8 h", "setting": "[1]; Sprague-Dawley, rat, brain/plasma, oral, 5 mg/kg, female rats, 8 hr, read-out: Brain/Plasma Ratio, DCDQ", "value": "56.1 ± 17.8"}, {"measurement": "Kp at 8 h", "setting": "[1]; Sprague-Dawley, rat, brain/plasma, oral, 5 mg/kg, male rats, 8 hr, read-out: Brain/Plasma Ratio, DCDQ", "value": "50.5 ± 11.4"}, {"measurement": "Kp", "setting": "[1]; both sexes, Sprague-Dawley, rat, brain, oral, 5 mg/kg, independent of time or sex, 2 to 8 hour post-dose, read-out: average brain-to-plasma DCDQ ratio", "value": "49.9 to 56.1"}, {"measurement": "% DCDQ of Brain Radioactivity", "setting": "[1]; female rats, 2 hr", "value": "95.2 ± 1.0", "unit": "%"}, {"measurement": "% DCDQ of Brain Radioactivity", "setting": "[1]; female rats, 8 hr", "value": "94.1 ± 0.7", "unit": "%"}, {"measurement": "% DCDQ of Brain Radioactivity", "setting": "[1]; male rats, 2 hr", "value": "90.4 ± 0.9", "unit": "%"}, {"measurement": "% DCDQ of Brain Radioactivity", "setting": "[1]; male rats, 4 hr", "value": "90.4 ± 0.5", "unit": "%"}, {"measurement": "% DCDQ of Brain Radioactivity", "setting": "[1]; male rats, 8 hr", "value": "90.0 ± 1.2", "unit": "%"}, {"measurement": "relative abundance in fecal extracts", "setting": "[2]; 8-24 hour fecal extracts", "value": "only trace amounts"}]}
{"smiles": "c1cc2c3c(c1)[C@H]1CCC[C@H]1CN3CCNC2", "note": "[[^14C]DCDQ]", "values": [{"measurement": "Brain concentration of radioactivity, Total", "setting": "[1]; female rats, 2 hr, mean ± S.D., N = 3", "value": "6.38 ± 2.22", "unit": "μg equivalents/g"}, {"measurement": "Brain concentration of radioactivity, Total", "setting": "[1]; female rats, 8 hr, mean ± S.D., N = 3", "value": "2.85 ± 0.68", "unit": "μg equivalents/g"}, {"measurement": "Brain concentration of radioactivity, Total", "setting": "[1]; male rats, 2 hr, mean ± S.D., N = 3", "value": "5.12 ± 1.28", "unit": "μg equivalents/g"}, {"measurement": "Brain concentration of radioactivity, Total", "setting": "[1]; male rats, 4 hr, mean ± S.D., N = 3", "value": "4.94 ± 0.44", "unit": "μg equivalents/g"}, {"measurement": "Brain concentration of radioactivity, Total", "setting": "[1]; male rats, 8 hr, mean ± S.D., N = 3", "value": "3.25 ± 0.99", "unit": "μg equivalents/g"}, {"measurement": "Brain radioactivity concentration", "setting": "[1]; male rats, 24 hour post-dose", "value": "0.037 ± 0.002", "unit": "µg equivalents/g tissue"}, {"measurement": "Brain concentration of radioactivity, Total", "setting": "[1]; male rats, 24 hr, mean ± S.D., N = 3", "value": "0.04 ± 0.00", "unit": "μg equivalents/g"}, {"measurement": "dosed radioactivity in feces", "setting": "[2]; 0-8 hour fecal samples", "value": "less than 0.1%"}, {"measurement": "dosed radioactivity recovered in feces", "setting": "[2]; first 24 hours post-dosing", "value": "21.1±2.1", "unit": "%"}]}
